{"source": "paper PMC9032934", "about": "(Pharmaceutics, 2022)", "key": {"Calu-3 cells": {"tested_on": "Calu-3 cells", "test": "Cellular uptake of Tamra-labelled peptides by flow cytometry, Calu-3", "format": "cell-based, human", "procedure": "(§1) Next, 48 h post-seeding, cells were rinsed twice with D-PBS and then incubated with 500 μL of Tamra-CPP-iCAL36 solution at the indicated conditions.\n(§2) Standard transfection and kinetic measurements.\n(§3) Transfection in the presence of serum."}, "Caco-2 cells [1]": {"tested_on": "Caco-2 cells", "test": "Cell viability by DAPI labeling in flow cytometry, Caco-2", "conditions": "CPZ 20 μM, NYS 50 μM, MBCD 5 mM, compared to non-treated cells (80 ± 10%)"}, "Caco-2 cells [2]": {"tested_on": "Caco-2 cells", "test": "Cellular uptake of Tamra-labelled peptides by flow cytometry, Caco-2", "format": "cell-based, human", "conditions": "for decrease in transfection efficiency with 10% serum / decrease in transfection efficiency with 20% serum: Tamra-peptides 5 µM, 3 h; for decrease in transfection efficiency with 10% serum: OptiMEM + 10% (v/v) FBS vs 0%; for decrease in transfection efficiency with 20% serum: OptiMEM + 20% (v/v) FBS vs 0%", "procedure": "as §1, §2, §3"}, "TatRI-iCAL36": {"target": "T1, TatRI-iCAL36 (N-terminal D-amino acid retro-inverso Tat (qpprrrqrrkkrg))", "T1 chain": "ANSRWPTSII", "test": "fluorescence polarization"}}, "note": "Non-standard residues stand in square brackets, D forms with d. Residues, ends and D or L forms follow the SMILES beside them.", "data": [{"molecule": "GRKKRRQRRRPPQ-ANSRWPTSII (GRKKRRQRRRPPQANSRWPTSII) [Tat-iCAL36, Tat cell-penetrating peptide conjugated to the N-terminus of iCAL36]", "values": [{"measurement": "increase in signal intensity (internalization) with longer incubation time (4.5 h)", "setting": "Calu-3 cells", "result": "~ 5.7 fold"}]}, {"molecule": "C[C@@H]1[C@H](O)[C@@H](C)/C=C/C=C/CC/C=C/C=C/C=C/C=C/C(O[C@H]2O[C@H](C)[C@@H](O)[C@H](N)[C@@H]2O)CC2O[C@](O)(CC(O)C(O)CCC(O)CC(O)CC(O)CC(=O)O[C@H]1C)CC(O)C2C(=O)O", "note": "(some centres unmarked) [NYS, nystatin]", "values": [{"measurement": "loss of viability (slight cytotoxicity) by endocytosis inhibitors", "setting": "Caco-2 cells [1]", "result": "5–20%"}]}, {"molecule": "GALFLGWLGAAGSTMGAWSQPKKKRKV-ANSRWPTSII [MPG-iCAL36, MPG cell-penetrating peptide conjugated to iCAL36]", "values": [{"measurement": "cellular internalization (Tamra fluorescence), comparison between peptides", "setting": "Caco-2 cells [2]; Tamra-labelled peptides 1 µM or 5 µM in OptiMEM, […], 37 °C, trypsinization, mean ± SD, n = 4", "result": "superior to Tat-iCAL36 and its analogs"}, {"measurement": "decrease in transfection efficiency with 10% serum", "setting": "Caco-2 cells [2]; 37 °C, n = 4", "result": "~ 30%"}, {"measurement": "decrease in transfection efficiency with 20% serum", "setting": "Caco-2 cells [2]; 37 °C, n = 4", "result": "~ 50%"}, {"measurement": "cellular internalization (Tamra fluorescence), comparison between peptides", "setting": "Calu-3 cells; Calu-3, Tamra-labelled peptides 1 µM or 5 µM in OptiMEM, […], 37 °C, trypsinization, flow cytometry, mean ± SD, n = 4", "result": "superior to Tat-iCAL36 and its analogs"}, {"measurement": "decrease in transfection efficiency with 10% serum", "setting": "Calu-3 cells; Calu-3, Tamra-peptides 5 µM, 3 h, OptiMEM + 10% (v/v) FBS vs 0%, 37 °C, flow cytometry, n = 4", "result": "~ 20%"}, {"measurement": "decrease in transfection efficiency with 20% serum", "setting": "Calu-3 cells; Calu-3, Tamra-peptides 5 µM, 3 h, OptiMEM + 20% (v/v) FBS vs 0%, 37 °C, flow cytometry, n = 4", "result": "~ 30%"}]}, {"molecule": "CC[C@H](C)[C@H](NC(=O)[C@@H](NC(=O)[C@H](CO)NC(=O)[C@@H](NC(=O)[C@@H]1CCCN1C(=O)[C@H](Cc1c[nH]c2ccccc12)NC(=O)[C@H](CCCNC(=N)N)NC(=O)[C@H](CO)NC(=O)[C@H](CC(N)=O)NC(=O)[C@H](C)NC(=O)CNC(=O)[C@@H](CCCNC(=N)N)NC(=O)[C@@H](CCCCN)NC(=O)[C@@H](CCCCN)NC(=O)[C@@H](CCCNC(=N)N)NC(=O)[C@@H](CCCNC(=N)N)NC(=O)[C@@H](CCC(N)=O)NC(=O)[C@@H](CCCNC(=N)N)NC(=O)[C@@H](CCCNC(=N)N)NC(=O)[C@@H](CCCNC(=N)N)NC(=O)[C@H]1CCCN1C(=O)[C@H]1CCCN1C(=O)[C@H](N)CCC(N)=O)[C@@H](C)O)[C@@H](C)CC)C(=O)O", "note": "[TatRI-iCAL36] (H-[dQ][dP][dP][dR][dR][dR][dQ][dR][dR][dK][dK][dR]GANSRWPTSII-OH)", "values": [{"measurement": "intracellular fluorescence without vs with chloroquine, peptide at 1 µM", "setting": "Caco-2 cells [2]; Tamra-TatRI-iCAL36 1 µM, CQ 100 µM, n = 4, one-way ANOVA", "result": "no statistical difference"}, {"measurement": "decrease in transfection efficiency with 10% serum", "setting": "Caco-2 cells [2]; 37 °C, n = 4", "result": "no significant difference"}, {"measurement": "decrease in transfection efficiency with 20% serum", "setting": "Caco-2 cells [2]; 37 °C, n = 4", "result": 18, "unit": "%"}, {"measurement": "increase in signal intensity (internalization) with longer incubation time (4.5 h)", "setting": "Caco-2 cells [2]; Tamra-peptides in OptiMEM, 4.5 h vs […], 37 °C, n = 3 (Figure S2A)", "result": "~ 3 fold"}]}, {"molecule": "NHERF2 PDZ2 (N2P2) PDZ2 (protein) LRPRLCHLRKGPQGYGFNLHSDKSRPGQYIRSVDPGSPAARSGLRAQDRLIEVNGQNVEGLRHAEVVASIKAREDEARLLVVDPETD", "values": [{"measurement": "Ki", "setting": "TatRI-iCAL36", "result": "> 5", "unit": "mM"}]}, {"molecule": "NHERF2 PDZ1 (N2P1) PDZ1 (protein) RPRLCRLVRGEQGYGFHLHGEKGRRGQFIRRVEPGSPAEAAALRAGDRLVEVNGVNVEGETHHQVVQRIKAVEGQTRLLVVDQETD", "values": [{"measurement": "Ki", "setting": "TatRI-iCAL36", "result": "> 5", "unit": "mM"}]}]}
